Laboratory results from patent US20220411525A1, “BCMA AS A TARGET FOR T CELL REDIRECTING ANTIBODIES IN B CELL LYMPHOMAS” (Janssen Pharmaceutica NV, priority 2021, published 2022).

What was measured:
Jurkat cells = assay: BCMA membrane level by flow cytometry after γ-secretase inhibition, Jurkat; assay type: cell-based; details: 100nM, 24-48 h
Protocol: (§1) To evaluate whether other malignancies besides multiple myeloma (MM) can potentially be targeted by BCMA directed immunotherapy, B cell malignancy cell lines were assessed for BCMA expression by flow cytometry. […] Per FIG. 1A, B cell malignancy cell lines were cultured and basal levels of BCMA were assessed by flow cytometry and compared to isotype controls. (n=3-8). Dotted line indicates no increase compared to isotype control. In accordance with FIG. 1B, cell lines were treated for 24-48h with 100nM γ-secretase inhibitor or with medium control and BCMA was assessed by flow cytometry. Values are represented as fold increase compared to 0 nM γ-secretase inhibitor. (n=3-12) Dotted line indicates no increase compared to 0 nM γ-secretase inhibitor. FIG. 1C represents the results of an asssessment of soluble BCMA by ELISA in supernatants of B cell malignancy cell lines after treatment with 0 nM or 100 nM γ-secretase inhibitor for 24-48 h. (n=2). […] The P value was calculated by paired t test of Wilcoxon test (FIG. 1A-1B) or simple linear regression (FIG. 1E). […]
(§2) Since BCMA is known to be cleaved off by γ-secretase, it was evaluated whether inhibition of this enzyme would lead to enhanced BCMA levels on these B cell lines. […]
(§3) Flow cytometry. […] After antibody staining, samples were washed using PBA and acquired on BD FACS Canto or LSR Fortessa flow cytometer and analysed with FlowJo v10. […]

[1] = system: B cell malignancy cell lines; assay: BCMA membrane level by flow cytometry after γ-secretase inhibition; assay type: cell-based; details: 100nM, 24-48 h, all B cell malignancy cell lines
Protocol: as §1, §2, §3

## C[C@H](NC(=O)[C@@H](O)c1cc(F)cc(F)c1)C(=O)N[C@@H]1C(=O)N(C)c2ccccc2-c2ccccc21 [Ly411575]
Jurkat cells
  BCMA level after γ-secretase inhibition: no upregulation of BCMA
[1]
  BCMA level after γ-secretase inhibition compared to unstimulated cells: increased BCMA level
